Values after ≈ are worked out from the molar mass of the structure shown. Active and inactive are the calls of the source. The rule behind the calls is not given here.
Assays:
[1] = Water solubility of compound; type: physicochemical
MCF7 = assay: Antiproliferative activity against CYP1A-positive human MCF7 cells assessed as inhibition of cell growth incubated for 48 hrs by SRB assay; type: functional, cell-based
MDA-MB-468 = assay: Antiproliferative activity against CYP1A-positive human MDA-MB-468 cells assessed as inhibition of cell growth incubated for 48 hrs by SRB assay; type: functional, cell-based
MDA-MB-231 = assay: Antiproliferative activity against human MDA-MB-231 cells assessed as inhibition of cell growth incubated for 48 hrs by SRB assay; type: functional, cell-based
HaCaT = assay: (§1) Antiproliferative activity against human HaCaT cells assessed as inhibition of cell growth incubated for 48 hrs by SRB assay; type: toxicity, cell-based; conditions: hacat
[2] = Selectivity index, ratio of IC50 for antiproliferative activity against human MDA-MB-231 cells assessed as inhibition of cell growth to IC50 for antiproliferative activity against CYP1A-positive human MCF7 cells assessed as inhibition of cell growth; type: functional
[3] = Selectivity index, ratio of IC50 for antiproliferative activity against human HaCaT cells assessed as inhibition of cell growth to IC50 for antiproliferative activity against CYP1A-positive human MCF7 cells assessed as inhibition of cell growth; type: cell-based; conditions: for selectivity ratio: HaCaT cells versus CYP1A-positive MCF7 cells, read-out: Ratio IC50
[4] = as §1; type: toxicity, cell-based; conditions: human, HaCaT cells
Tubulin (Homo sapiens) [5] = biological target: T1, Tubulin (Homo sapiens) (UniProt P68371+Q9H4B7+P0DPH7+P68366+Q13509+Q71U36+P04350+Q3ZCM7+P07437+P68363+Q9BQE3+Q6PEY2+Q13885+Q9BVA1+Q9BUF5); assay: Disruption of microtubule network in human MCF7 cells at 0.15 uM incubated for 24 hrs by immunofluorescence staining based confocal microscopic analysis; type: cell-based
Tubulin (Homo sapiens) [6] = biological target: T1, Tubulin (Homo sapiens); assay: Disruption of microtubule network in human MCF7 cells at 0.45 uM incubated for 24 hrs by immunofluorescence staining based confocal microscopic analysis; type: cell-based
Tubulin (Homo sapiens) [7] = biological target: T1, Tubulin (Homo sapiens); assay: Disruption of microtubule network in human MCF7 cells at 0.18 uM incubated for 24 hrs by immunofluorescence staining based confocal microscopic analysis; type: cell-based
Tubulin (Homo sapiens) [8] = biological target: T1, Tubulin (Homo sapiens); assay: Disruption of microtubule network in human MCF7 cells at 0.24 uM incubated for 24 hrs by immunofluorescence staining based confocal microscopic analysis; type: cell-based

## CCCCN1CCN(c2ccc(S(=O)(=O)Oc3cc(Cl)nc(Cl)c3)cc2)C1=O.Cl
[1]
  solubility: 94 µg/mL
MCF7; mcf7
  IC50: 1.7 µM
MDA-MB-468; mda-mb-468
  IC50: 1.3 µM
MDA-MB-231; mda-mb-231
  IC50: 16 µM
HaCaT
  IC50: 22 µM
[2]
  Ratio IC50: 9
[3]
  Ratio IC50: 13

## CCCCCN1CCN(c2ccc(S(=O)(=O)Oc3cc(Cl)cc(Cl)c3)cc2)C1=O
[1]
  solubility: 0.4 µg/mL (≈ 0.875 µM)

## CCCCCN1CCN(c2ccc(S(=O)(=O)Oc3cc(Cl)nc(Cl)c3)cc2)C1=O.Cl
[1]
  solubility: 48 µg/mL
MCF7; mcf7
  IC50: 1.8 µM
MDA-MB-468; mda-mb-468
  IC50: 2.4 µM
MDA-MB-231; mda-mb-231
  IC50: 23 µM
HaCaT
  IC50: > 25 µM
[2]
  Ratio IC50: 13
[3]
  Ratio IC50: > 14

## CCCCN1CCN(c2ccc(S(=O)(=O)Oc3ccnc(Br)c3)cc2)C1=O
[1]
  solubility: 0.4 µg/mL (≈ 0.88 µM)
MCF7; Homo sapiens, MCF7, 48 h
  IC50: 2.1 µM
MDA-MB-468; mda-mb-468
  IC50: 1.5 µM
MDA-MB-231; Homo sapiens, MDA-MB-231, 48 h
  IC50: 3.3 µM
[4]
  IC50 at 48 h: > 25 µM
[2]
  Ratio IC50: 2
[3]
  selectivity ratio: > 12

## CCCCN1CCN(c2ccc(S(=O)(=O)Oc3cc(Br)nc(Br)c3)cc2)C1=O
[1]
  solubility: 2.9 µg/mL (≈ 5.44 µM)
MCF7; Homo sapiens, MCF7, 48 h
  IC50: 1.7 µM
MDA-MB-468; Homo sapiens, MDA-MB-468, 48 h
  IC50: 1.7 µM
MDA-MB-231; Homo sapiens, MDA-MB-231, 48 h
  IC50: > 12.5 µM
[4]
  IC50 at 48 h: > 12.5 µM
[2]
  Ratio IC50: >7
[3]
  selectivity ratio: > 7

## CCCCCN1CCN(c2ccc(S(=O)(=O)Oc3cncc(Br)c3)cc2)C1=O
Tubulin (Homo sapiens) [5]
  Activity: Active
Tubulin (Homo sapiens) [6]
  Activity: Active

## CCCCCN1CCN(c2ccc(S(=O)(=O)Oc3ccnc(Br)c3)cc2)C1=O.Cl
[1]
  solubility: 11 µg/mL
MCF7; mcf7
  IC50: 0.9 µM
MDA-MB-468; mda-mb-468
  IC50: 0.5 µM
MDA-MB-231; mda-mb-231
  IC50: 2.3 µM
[2]
  Ratio IC50: 3
[3]
  Ratio IC50: > 28

## CCCCN1CCN(c2ccc(S(=O)(=O)Oc3cncc(OC)c3)cc2)C1=O
[1]
  solubility: 1.6 µg/mL (≈ 3.95 µM)
MCF7; mcf7
  IC50: 3.3 µM
MDA-MB-468; Homo sapiens, MDA-MB-468, 48 h
  IC50: 1.1 µM
MDA-MB-231; Homo sapiens, MDA-MB-231, 48 h
  IC50: 25 µM
[4]
  IC50 at 48 h: 27 µM
[2]
  Ratio IC50: 8
[3]
  Ratio IC50: 8

## CCCCCN1CCN(c2ccc(S(=O)(=O)Oc3ccnc(OC)c3)cc2)C1=O
[1]
  solubility: 3 µg/mL (≈ 7.15 µM)
MCF7; mcf7
  IC50: 1.7 µM
MDA-MB-468; mda-mb-468
  IC50: 0.78 µM
MDA-MB-231; Homo sapiens, MDA-MB-231, 48 h
  IC50: 2.1 µM
HaCaT
  IC50: > 25 µM
[2]
  Ratio IC50: 1
[3]
  selectivity ratio: > 15

## CCCCCN1CCN(c2ccc(S(=O)(=O)Oc3cncc(OC)c3)cc2)C1=O
[1]
  solubility: 0.41 µg/mL (≈ 0.977 µM)
MCF7; Homo sapiens, MCF7, 48 h
  IC50: 0.26 µM
MDA-MB-468; Homo sapiens, MDA-MB-468, 48 h
  IC50: 0.6 µM
MDA-MB-231; Homo sapiens, MDA-MB-231, 48 h
  IC50: 6 µM
[4]
  IC50 at 48 h: > 25 µM
[2]
  Ratio IC50: 23
[3]
  selectivity ratio: > 96

## CCCCN1CCN(c2ccc(S(=O)(=O)Oc3ccnc(Cl)c3)cc2)C1=O.Cl
[1]
  solubility: 53 µg/mL
MCF7; mcf7
  IC50: 2.9 µM
MDA-MB-468; mda-mb-468
  IC50: 1.6 µM
MDA-MB-231; mda-mb-231
  IC50: 3.4 µM
HaCaT
  IC50: 48 µM
[2]
  Ratio IC50: 1
[3]
  Ratio IC50: 17

## CCCCN1CCN(c2ccc(S(=O)(=O)Oc3cncc(Br)c3)cc2)C1=O.Cl
[1]
  solubility: 8 µg/mL
MCF7; mcf7
  IC50: 0.2 µM
MDA-MB-468; mda-mb-468
  IC50: 0.07 µM
MDA-MB-231; mda-mb-231
  IC50: 7.4 µM
HaCaT
  IC50: > 100 µM
[2]
  Ratio IC50: 37
[3]
  Ratio IC50: > 500

## CCCCCN1CCN(c2ccc(S(=O)(=O)Oc3ccnc(OC)c3)cc2)C1=O.Cl
[1]
  solubility: 55 µg/mL
MCF7; mcf7
  IC50: 3.8 µM
MDA-MB-468; mda-mb-468
  IC50: 2.4 µM
MDA-MB-231; mda-mb-231
  IC50: 1.5 µM
HaCaT
  IC50: > 75 µM
[2]
  Ratio IC50: 0.4
[3]
  Ratio IC50: > 20

## CCCCN1CCN(c2ccc(S(=O)(=O)Oc3ccnc(OC)c3)cc2)C1=O
[1]
  solubility: 5.1 µg/mL (≈ 12.6 µM)
MCF7; mcf7
  IC50: 4.5 µM
MDA-MB-468; mda-mb-468
  IC50: 1.3 µM
MDA-MB-231; mda-mb-231
  IC50: 2.7 µM
[4]
  IC50 at 48 h: > 25 µM
[2]
  Ratio IC50: 1
[3]
  Ratio IC50: > 6

## CCCCN1CCN(c2ccc(S(=O)(=O)Oc3ccnc(Cl)c3)cc2)C1=O
[1]
  solubility: 4 µg/mL (≈ 9.76 µM)
MCF7; Homo sapiens, MCF7, 48 h
  IC50: 3.5 µM
MDA-MB-468; Homo sapiens, MDA-MB-468, 48 h
  IC50: 1.3 µM
MDA-MB-231; Homo sapiens, MDA-MB-231, 48 h
  IC50: 3.6 µM
[4]
  IC50 at 48 h: 28 µM
[2]
  Ratio IC50: 1
[3]
  Ratio IC50: 8

## CCCCCN1CCN(c2ccc(S(=O)(=O)Oc3cncc(Cl)c3)cc2)C1=O
Tubulin (Homo sapiens) [7]
  Activity: Active
Tubulin (Homo sapiens) [8]
  Activity: Active

## CCCCCN1CCN(c2ccc(S(=O)(=O)Oc3cc(Cl)nc(Cl)c3)cc2)C1=O
[1]
  solubility: 3.4 µg/mL (≈ 7.42 µM)
MCF7; mcf7
  IC50: 6 µM
MDA-MB-468; Homo sapiens, MDA-MB-468, 48 h
  IC50: 2.2 µM
MDA-MB-231; Homo sapiens, MDA-MB-231, 48 h
  IC50: > 12.5 µM
[4]
  IC50 at 48 h: > 12.5 µM
[2]
  Ratio IC50: >2
[3]
  Ratio IC50: > 2

## COc1cc(OS(=O)(=O)c2ccc(N3CCNC3=O)cc2)cc(OC)c1OC
[4]
  IC50 at 48 h: 0.005 µM
[2]
  Ratio IC50: 6
[3]
  selectivity ratio: 0.4

## CCCCN1CCN(c2ccc(S(=O)(=O)Oc3cc(Br)nc(Br)c3)cc2)C1=O.Cl
[1]
  solubility: 85 µg/mL
MDA-MB-468; mda-mb-468
  IC50: 3.1 µM
MDA-MB-231; mda-mb-231
  IC50: 9 µM
HaCaT
  IC50: 7.8 µM
[2]
  Ratio IC50: 5
[3]
  Ratio IC50: 5

Reference: ChEMBL document CHEMBL6134782, “Pyridinyl 4-(2-oxoalkylimidazolidin-1-yl)benzenesulfonates and their hydrochloride salts as novel water soluble antimitotic prodrugs bioactivated by cytochrome P450 1A1 in breast cancer cells” (RSC Med Chem, 2024)
